Drawing on patent US9062055B2, “Fused pyrrole derivatives as PI3K inhibitors” (Incyte Corporation, priority 2010, dated 2015), this text covers IC50 for ten molecules.

Where a name gives a salt, the structure may show the parent alone.

In the test the target is T1, PI3Kδ (p110δ/p85α) (Homo sapiens, UniProt O00329).
T1 construct: purchased Millipore (Bedford, Mass.)
T1 sequence (O00329 whole entry): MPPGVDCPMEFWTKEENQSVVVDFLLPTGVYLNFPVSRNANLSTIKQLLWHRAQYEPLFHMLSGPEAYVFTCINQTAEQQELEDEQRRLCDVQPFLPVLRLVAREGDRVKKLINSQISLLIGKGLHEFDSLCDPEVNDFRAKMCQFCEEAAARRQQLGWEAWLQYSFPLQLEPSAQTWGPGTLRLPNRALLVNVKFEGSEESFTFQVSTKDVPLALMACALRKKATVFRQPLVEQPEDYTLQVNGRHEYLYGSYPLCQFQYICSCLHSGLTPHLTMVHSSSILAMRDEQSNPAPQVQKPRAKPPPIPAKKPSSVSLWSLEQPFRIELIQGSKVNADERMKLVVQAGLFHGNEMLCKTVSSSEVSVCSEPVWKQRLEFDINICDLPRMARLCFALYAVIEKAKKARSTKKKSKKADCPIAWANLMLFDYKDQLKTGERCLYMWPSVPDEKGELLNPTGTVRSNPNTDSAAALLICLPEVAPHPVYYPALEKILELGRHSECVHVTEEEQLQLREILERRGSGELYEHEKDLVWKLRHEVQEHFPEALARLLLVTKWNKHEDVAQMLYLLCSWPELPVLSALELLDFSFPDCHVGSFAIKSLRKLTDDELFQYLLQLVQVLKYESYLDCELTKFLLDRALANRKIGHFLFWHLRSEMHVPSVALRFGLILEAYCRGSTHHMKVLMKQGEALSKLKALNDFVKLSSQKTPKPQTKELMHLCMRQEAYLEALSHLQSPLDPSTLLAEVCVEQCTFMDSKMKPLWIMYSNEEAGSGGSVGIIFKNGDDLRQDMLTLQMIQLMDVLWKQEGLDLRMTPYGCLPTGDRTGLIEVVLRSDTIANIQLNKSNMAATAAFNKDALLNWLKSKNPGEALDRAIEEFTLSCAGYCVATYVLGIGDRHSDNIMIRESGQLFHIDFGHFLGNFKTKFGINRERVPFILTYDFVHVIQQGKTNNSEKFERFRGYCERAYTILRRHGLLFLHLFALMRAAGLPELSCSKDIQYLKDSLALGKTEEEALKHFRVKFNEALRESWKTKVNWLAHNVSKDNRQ
T1 sequence (P27986 whole entry partner): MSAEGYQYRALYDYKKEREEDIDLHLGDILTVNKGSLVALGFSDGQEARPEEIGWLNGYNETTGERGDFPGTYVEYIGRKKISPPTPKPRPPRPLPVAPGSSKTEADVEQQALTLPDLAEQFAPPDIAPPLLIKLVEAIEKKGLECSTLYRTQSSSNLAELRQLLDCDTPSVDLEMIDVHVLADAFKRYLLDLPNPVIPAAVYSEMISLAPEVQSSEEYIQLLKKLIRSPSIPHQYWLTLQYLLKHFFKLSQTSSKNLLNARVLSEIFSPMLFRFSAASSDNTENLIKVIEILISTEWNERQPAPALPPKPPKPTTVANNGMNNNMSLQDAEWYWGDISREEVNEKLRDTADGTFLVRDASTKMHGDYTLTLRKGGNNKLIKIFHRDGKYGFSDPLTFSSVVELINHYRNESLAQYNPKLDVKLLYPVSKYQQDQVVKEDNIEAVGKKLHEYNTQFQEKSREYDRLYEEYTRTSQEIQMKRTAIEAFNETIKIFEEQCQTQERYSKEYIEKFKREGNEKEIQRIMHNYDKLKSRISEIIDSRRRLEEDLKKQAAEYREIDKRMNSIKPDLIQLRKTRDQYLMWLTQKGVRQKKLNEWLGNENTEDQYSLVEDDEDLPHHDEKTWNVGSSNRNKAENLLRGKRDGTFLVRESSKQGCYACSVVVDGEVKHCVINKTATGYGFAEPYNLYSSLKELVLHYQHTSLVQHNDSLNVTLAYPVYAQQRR
As to the kind of experiment: PI3Kδ Scintillation Proximity Assay. As to conditions: TFA salts of racemates tested; 20 μM PIP2, 20 μM ATP, 4 nM PI3Kδ, 210 min, room temperature. The class given is biochemical. From the text:
[γ-^33P]ATP (10 mCi/mL) was purchased from Perkin-Elmer (Waltham, Mass.). Lipid kinase substrate, D-myo-Phosphatidylinositol 4,5-bisphosphate (PtdIns(4,5)P2)D (+)-sn-1,2-di-O-octanoylglyceryl, 3-O-phospho linked (PIP2), CAS 204858-53-7, was purchased from Echelon Biosciences (Salt Lake City, Utah). PI3Kδ (p110δ/p85α) was purchased from Millipore (Bedford, Mass.). ATP, MgCl2, DTT, EDTA, MOPS and CHAPS were purchased from Sigma-Aldrich (St. Louis, Mo.). Wheat Germ Agglutinin (WGA) YSi SPA Scintillation Beads was purchased from GE healthcare life sciences (Piscataway, N.J.). The kinase reaction was conducted in polystyrene 384-well matrix white plate from Thermo Fisher Scientific in a final volume of 25 μL. Inhibitors were first diluted serially in DMSO and added to the plate wells before the addition of other reaction components. The final concentration of DMSO in the assay was 0.5%. The PI3K assays were carried out at room temperature in 20 mM MOPS, pH 6.7, 10 mM MgCl2, 5 mM DTT and CHAPS 0.03%. Reactions were initiated by the addition of ATP, the final reaction mixture consisted of 20 μM PIP2, 20 μM ATP, 0.2 μCi [γ-^33P] ATP, 4 nM PI3Kδ. Reactions were incubated for 210 min and terminated by the addition of 40 μL SPA beads suspended in quench buffer: 150 mM potassium phosphate pH 8.0, 20% glycerol. 25 mM EDTA, 400 μM ATP. The final concentration of SPA beads was 1.0 mg/mL After the plate sealing, plates were shaken overnight at room temperature and centrifuged at 1800 rpm for 10 minutes, the radioactivity of the product was determined by scintillation counting on Topcount (Perkin-Elmer). IC50 determination was performed by fitting the curve of percent control activity versus the log of the inhibitor concentration using the GraphPad Prism 3.0 software. See Table 1 for data related to compounds of the invention (TFA salts of racemates of each of the compounds were tested).
A general note: Scintillation proximity formats need no separation of bound from free tracer.
By IC50 is commonly meant the concentration that gives 50% inhibition. Turning to `CC(Nc1ncnc2[nH]cnc12)c1cc2c(Cl)cccc2n1-c1cccc(F)c1` (racemic) [Example 2, N-{1-[4-Chloro-1-(3-fluorophenyl)-1H-indol-2-yl]ethyl}-9H-purin-6-amine trifluoroacetate], the IC50 was at most 50 nM.
The same measure for `CC(Nc1ncnc2[nH]cnc12)c1cc2cccnc2n1-c1cccc(F)c1` (racemic) [Example 7, N-(1-(1-(3-Fluorophenyl)-1H-pyrrolo[2,3-b]pyridin-2-yl)ethyl)-9H-purin-6-amine bis(2,2,2-trifluoroacetate)]: 250 to 750 nM.
In the case of `CC(Nc1ncnc2[nH]cnc12)c1cc2ccc(Cl)cc2n1-c1cccc(F)c1` (racemic) [Example 1, N-{1-[6-Chloro-1-(3-fluorophenyl)-1H-indol-2-yl]ethyl}-9H-purin-6-amine trifluoroacetate] it was 100 to 250 nM.
The same measure for `CC(Nc1ncnc2[nH]cnc12)c1c(F)c2cccnc2n1-c1cccc(F)c1` (racemic) [Example 10, N-(1-(3-Fluoro-1-(3-fluorophenyl)-1H-pyrrolo[2,3-b]pyridin-2-yl)ethyl)-9H-purin-6-amine bis(2,2,2-trifluoroacetate)]: 100 to 250 nM; for `Cc1c(C(C)Nc2ncnc3[nH]cnc23)n(-c2cccc(F)c2)c2ccccc12` (racemic) [Example 8, N-{1-[1-(3-Fluorophenyl)-3-methyl-1H-indol-2-yl]ethyl}-9H-purin-6-amine trifluoroacetate]: at most 50 nM; for `CC(Nc1ncnc2[nH]cnc12)c1c(Cl)c2cccnc2n1-c1cccc(F)c1` (racemic) [Example 6, N-{1-[3-Chloro-1-(3-fluorophenyl)-1H-pyrrolo[2,3-b]pyridin-2-yl]ethyl}-9H-purin-6-amine bis(trifluoroacetate)]: at most 50 nM.
For `CC(Nc1ncnc2[nH]cnc12)c1c(C#N)c2ccccc2n1-c1cccc(F)c1` (racemic) [Example 9, 2-(1-(9H-Purin-6-ylamino)ethyl)-1-(3-fluorophenyl)-1H-indole-3-carbonitrile 2,2,2-trifluoroacetate], the 50% inhibitory concentration (IC50) is at most 50 nM.
In the case of `CC(Nc1ncnc2[nH]cnc12)c1c(Br)c2ccccc2n1-c1cccc(F)c1` (racemic) [Example 5, N-{1-[3-Bromo-1-(3-fluorophenyl)-1H-indol-2-yl]ethyl}-9H-purin-6-amine trifluoroacetate] it was 50 to 100 nM.
The same measure for `CC(Nc1ncnc2[nH]cnc12)c1c(Cl)c2c(Cl)cccc2n1-c1cccc(F)c1` (racemic) [Example 4, N-{1-[3,4-Dichloro-1-(3-fluorophenyl)-1H-indol-2-yl]ethyl}-9H-purin-6-amine trifluoroacetate]: 50 to 100 nM; for `CC(Nc1ncnc2[nH]cnc12)c1c(Cl)c2ccccc2n1-c1cccc(F)c1` (racemic) [Example 3, N-{1-[3-Chloro-1-(3-fluorophenyl)-1H-indol-2-yl]ethyl}-9H-purin-6-amine trifluoroacetate]: at most 50 nM.
